One may read the half-life as how long it takes for the measured level to halve. A low value points to rapid decline.

Where a SMILES comes first, the peptide text is derived from it. Bridges are numbered along the chain shown (N, C = ends). [ ]: non-standard residue; d: D form. The star is where a group is joined. Palmitoyl = CCCCCCCCCCCCCCCC(=O)*; 3Pal = N[C@@H](Cc1cccnc1)C(=O)O; Myristoyl = CCCCCCCCCCCCCC(=O)*; pGlu = O=C1CC[C@@H](C(=O)O)N1; Lauroyl = CCCCCCCCCCCC(=O)*; d(hCys) = N[C@H](CCS)C(=O)O; hCys = N[C@@H](CCS)C(=O)O; Nle = CCCC[C@H](N)C(=O)O; Api = NC1(C(=O)O)CCNCC1; AEEA = NCCOCCOCC(=O)O; Aib = CC(C)(N)C(=O)O

The data set is described as follows: in vitro. As to conditions: rat, not told, Surrogate activity-based Plasma stability t½.
Experimental: The slope of this line, k, was determined by linear regression (Microsoft Excel). • Stability half-life was then calculated by the formula, t ½=0.693÷k Surrogate Activity-Based Plasma Stability Assay:
The calcium flux protocol described above was followed, with the following changes. The peptides were also incubated with 5% rat plasma (Bioreclamation # [sequence]-M, Na Heparin-treated). Readings were taken at time points t0 and t24 hrs, after incubation in a 37° C. tissue culture incubator. Peptide plasma half-life in minutes was estimated by calculating the following:
2) Calculate slope of value above and
The compound `CCCCCCCCCCCC(=O)NCCCC[C@H](NC(=O)[C@@H]1CSSC[C@H](NC(=O)[C@H](CC(C)C)NC(=O)[C@H](CCCNC(=N)N)NC(=O)[C@@H]2CCCN2C(=O)[C@H](CCCNC(=N)N)NC(=O)[C@@H]2CCC(=O)N2)C(=O)N[C@@H](Cc2c[nH]cn2)C(=O)N[C@@H](CCCCN)C(=O)NCC(=O)N2CCC[C@H]2C(=O)N[C@@H](CCCC)C(=O)N1)C(=O)O` [Example 26, pE-R-P-R-L-C-H-K-G-P-Nle-C-K(Lauroyl)-OH] ([pGlu]RPRLCHKGP[Nle]CK(Lauroyl)-OH; disulfide 6-12) returned a half-life of more than 16.7 h.
In turn, `CCCC[C@@H]1NC(=O)[C@@H]2CCCN2C(=O)CNC(=O)[C@H](CCCCN)NC(=O)[C@H](Cc2c[nH]cn2)NC(=O)[C@@H](NC(=O)[C@H](CC(C)C)NC(=O)[C@H](CCCNC(=N)N)NC(=O)[C@@H]2CCCN2C(=O)[C@H](CCCNC(=N)N)NC(=O)[C@@H]2CCC(=O)N2)CSSCC[C@H](C(=O)N[C@@H](Cc2ccccc2)C(=O)O)NC1=O` [Example 54, pE-R-P-R-L-C-H-K-G-P-Nle-(D-hC)-F-OH] ([pGlu]RPRLCHKGP[Nle][d(hCys)]F-OH; disulfide 6-12) showed a half-life of more than 16.7 h.
Turning to `CCCCCCCCCCCCCC(=O)NCCOCCOCC(=O)NCCOCCOCC(=O)NCCOCCOCC(=O)NCCOCCOCC(=O)N[C@@H](CCC(N)=O)C(=O)N[C@@H](CCCNC(=N)N)C(=O)N1CCC[C@H]1C(=O)N[C@@H](CCCNC(=N)N)C(=O)N[C@@H](CC(C)C)C(=O)N[C@H]1CSSC[C@@H](C(=O)N[C@H](Cc2ccccc2)C(=O)O)NC(=O)[C@H](CCCC)NC(=O)[C@@H]2CCCN2C(=O)CNC(=O)[C@H](CCCCN)NC(=O)[C@H](Cc2c[nH]cn2)NC1=O` [Example 60, Myristoyl-O2Oc-O2Oc-O2Oc-O2Oc-Q-R-P-R-L-C-H-K-G-P-Nle-C-f-OH] ({Myristoyl-AEEA-AEEA-AEEA-AEEA}-QRPRLCHKGP[Nle]C[dF]-OH; disulfide 6-12), the half-life is more than 16.7 h.
`CCCC[C@@H]1NC(=O)[C@@H]2CCCN2C(=O)CNC(=O)[C@H](CCCCN)NC(=O)[C@H](Cc2ccccc2)NC(=O)[C@@H](NC(=O)[C@H](CC(C)C)NC(=O)[C@H](CCCNC(=N)N)NC(=O)[C@@H]2CCCN2C(=O)[C@H](CCCNC(=N)N)NC(=O)[C@@H]2CCC(=O)N2)CCCCNC(=O)[C@@H](Cc2ccccc2)NC1=O` [Example 6, pE-R-P-R-L-K-F-K-G-P-Nle-f] ([pGlu]RPRLKFKGP[Nle][dF]; lactam 6-C) registered a half-life of 1.95 h.
The same measure for `CC(C)C[C@H](NC(=O)[C@H](CCCNC(=N)N)NC(=O)[C@@H]1CCCN1C(=O)[C@H](CCCNC(=N)N)NC(=O)[C@@H]1CCC(=O)N1)C(=O)N[C@H]1CSSC[C@@H](C(=O)N[C@@H](Cc2ccccc2)C(=O)O)NC(=O)[C@H](Cc2cccnc2)NC(=O)[C@@H]2CCCN2C(=O)CNC(=O)[C@H](CCCCN)NC(=O)[C@H](Cc2c[nH]cn2)NC1=O` [Example 47, pE-R-P-R-L-C-H-K-G-P-(3-PyA)-C-F-OH] ([pGlu]RPRLCHKGP[3Pal]CF-OH; disulfide 6-12): 6.98 h; for `CCCCCCCCCCCC(=O)NCCCC[C@@H]1NC(=O)[C@@H](NC(=O)[C@H](CC(C)C)NC(=O)[C@H](CCCNC(=N)N)NC(=O)[C@@H]2CCCN2C(=O)[C@H](CCCNC(=N)N)NC(=O)[C@@H]2CCC(=O)N2)CSSC[C@@H](C(=O)N[C@@H](Cc2ccccc2)C(=O)O)NC(=O)[C@H](CCCC)NC(=O)[C@@H]2CCCN2C(=O)CNC(=O)[C@H](CCCCN)NC1=O` [Example 27, pE-R-P-R-L-C-K(Lauroyl)-K-G-P-Nle-C-F-OH] ([pGlu]RPRLCK(Lauroyl)KGP[Nle]CF-OH; disulfide 6-12): more than 16.7 h; for `CCCC[C@@H]1NC(=O)[C@@H]2CCCN2C(=O)[C@H](CCCNC(=N)N)NC(=O)[C@H](CCCCN)NC(=O)[C@H](Cc2c[nH]cn2)NC(=O)[C@@H](NC(=O)[C@H](CC(C)C)NC(=O)[C@H](CCCNC(=N)N)NC(=O)[C@@H]2CCCN2C(=O)[C@H](CCCNC(=N)N)NC(=O)[C@@H]2CCC(=O)N2)CSSC[C@@H](C(=O)N[C@@H](Cc2ccccc2)C(=O)O)NC1=O` [Example 45, pE-R-P-R-L-C-H-K-R-P-Nle-C-F-OH] ([pGlu]RPRLCHKRP[Nle]CF-OH; disulfide 6-12): 2.79 h.
`CCCC[C@@H]1NC(=O)[C@@H]2CCCN2C(=O)CNC(=O)[C@H](CCCCN)NC(=O)[C@H](Cc2c[nH]cn2)NC(=O)[C@@H](NC(=O)[C@H](CC(C)C)NC(=O)[C@H](CCCNC(=N)N)NC(=O)[C@@H]2CCCN2C(=O)[C@H](Cc2ccccc2)NC(=O)[C@@H]2CCC(=O)N2)CSSC[C@@H](C(=O)N[C@@H](Cc2ccccc2)C(=O)O)NC1=O` [Example 31, pE-F-P-R-L-C-H-K-G-P-Nle-C-F-OH] ([pGlu]FPRLCHKGP[Nle]CF-OH; disulfide 6-12) gave a half-life of more than 16.7 h.
In turn, `CCCC[C@@H]1NC(=O)[C@@H]2CCCN2C(=O)CNC(=O)[C@H](CCCCN)NC(=O)[C@H](Cc2cnc[nH]2)NC(=O)[C@@H](NC(=O)[C@H](CC(C)C)NC(=O)[C@H](CCCNC(=N)N)NC(=O)[C@@H]2CCCN2C(=O)[C@H](CCCNC(=N)N)NC(=O)[C@@H]2CCC(=O)N2)CSC[C@@H](C(=O)N[C@@H](Cc2ccccc2)C(=O)O)NC1=O` [Example 65, pE-R-P-R-L-C-H-K-G-P-Nle-C-F-OH] gave a half-life of 9.93 h.
Take `CCCC[C@@H]1NC(=O)[C@@H]2CCCN2C(=O)C(C)(C)NC(=O)[C@H](CCCCN)NC(=O)[C@H](Cc2c[nH]cn2)NC(=O)[C@@H](NC(=O)[C@H](CC(C)C)NC(=O)[C@H](CCCNC(=N)N)NC(=O)[C@@H]2CCCN2C(=O)[C@H](CCCNC(=N)N)NC(=O)[C@@H]2CCC(=O)N2)CSSC[C@@H](C(=O)N[C@@H](Cc2ccccc2)C(=O)O)NC1=O` [Example 20, pE-R-P-R-L-C-H-K-Aib-P-Nle-C-F-OH] ([pGlu]RPRLCHK[Aib]P[Nle]CF-OH; disulfide 6-12): the half-life turned out to be 8.17 h.
Consider `CCCC[C@@H]1NC(=O)[C@@H]2CCCN2C(=O)CNC(=O)[C@H](CCCCN)NC(=O)[C@H](Cc2c[nH]cn2)NC(=O)[C@@H](NC(=O)[C@H](CC(C)C)NC(=O)[C@H](CCCNC(=N)N)NC(=O)[C@H](CC(=O)O)NC(=O)[C@H](CCCNC(=N)N)NC(=O)[C@@H]2CCC(=O)N2)CSSC[C@@H](C(=O)N[C@@H](Cc2ccccc2)C(=O)O)NC1=O` [Example 35, pE-R-D-R-L-C-H-K-G-P-Nle-C-F-OH] ([pGlu]RDRLCHKGP[Nle]CF-OH; disulfide 6-12), for which the half-life is more than 16.7 h.
`CCCC[C@@H]1NC(=O)[C@@H]2CCCN2C(=O)CNC(=O)[C@H](CCCCN)NC(=O)[C@H](Cc2c[nH]cn2)NC(=O)[C@@H](NC(=O)[C@H](CC(C)C)NC(=O)[C@H](CCCNC(=N)N)NC(=O)[C@@H]2CCCN2C(=O)[C@H](CCCNC(=N)N)NC(=O)[C@@H]2CCC(=O)N2)CSSC[C@@H](C(=O)N[C@@H](Cc2c[nH]cn2)C(=O)O)NC1=O` [Example 48, pE-R-P-R-L-C-H-K-G-P-Nle-C-H-OH] ([pGlu]RPRLCHKGP[Nle]CH-OH; disulfide 6-12) had a half-life of 9.11 h.
The figure for `CCCC[C@@H]1NC(=O)[C@@H]2CCCN2C(=O)CNC(=O)C2(CCNCC2)NC(=O)[C@H](Cc2c[nH]cn2)NC(=O)[C@@H](NC(=O)[C@H](CC(C)C)NC(=O)[C@H](CCCNC(=N)N)NC(=O)[C@@H]2CCCN2C(=O)[C@H](CCCNC(=N)N)NC(=O)[C@@H]2CCC(=O)N2)CSSC[C@@H](C(=O)N[C@@H](Cc2ccccc2)C(=O)O)NC1=O` [Example 21, pE-R-P-R-L-C-H-(4-NH-Isn)-G-P-Nle-C-F-OH] ([pGlu]RPRLCH[Api]GP[Nle]CF-OH; disulfide 6-12) is 10.7 h; for `CCCC[C@@H]1NC(=O)[C@@H]2CCCN2C(=O)CNC(=O)[C@H](CCCCN)NC(=O)[C@H](Cc2cnc[nH]2)NC(=O)[C@@H](NC(=O)[C@H](CC(C)C)NC(=O)[C@H](CCCNC(=N)N)NC(=O)[C@@H]2CCCN2C(=O)[C@H](CCCNC(=N)N)NC(=O)[C@@H]2CCC(=O)N2)CSC/C(=N/OCC(=O)NCCNC(=O)COCCOCCNC(=O)CCC(NC(=O)CCCCCCCCCCCCCCCCC(=O)O)C(=O)O)CSC[C@@H](C(=O)N[C@@H](Cc2ccccc2)C(=O)O)NC1=O` (stereo partly drawn) [Example 66] it is 9.93 h.
Compound `CCCC[C@@H]1NC(=O)[C@@H]2CCCN2C(=O)CNC(=O)[C@H](CCCCN)NC(=O)[C@H](Cc2c[nH]cn2)NC(=O)[C@@H](NC(=O)[C@H](CC(C)C)NC(=O)[C@H](CCCNC(=N)N)NC(=O)[C@@H]2CCCN2C(=O)[C@H](CCCNC(=N)N)NC(=O)[C@@H]2CCC(=O)N2)CSSCC[C@@H](C(=O)N[C@@H](Cc2ccccc2)C(=O)O)NC1=O` [Example 51, pE-R-P-R-L-C-H-K-G-P-Nle-hC-F-OH] ([pGlu]RPRLCHKGP[Nle][hCys]F-OH; disulfide 6-12) came in with a half-life of 10.9 h.
In turn, `CCCCCCCCCCCCCCCC(=O)NCCCC[C@H](NC(=O)[C@@H]1CSSC[C@H](NC(=O)[C@H](CC(C)C)NC(=O)[C@H](CCCNC(=N)N)NC(=O)[C@@H]2CCCN2C(=O)[C@H](CCCNC(=N)N)NC(=O)[C@@H]2CCC(=O)N2)C(=O)N[C@@H](Cc2c[nH]cn2)C(=O)N[C@@H](CCCCN)C(=O)NCC(=O)N2CCC[C@H]2C(=O)N[C@@H](CCCC)C(=O)N1)C(=O)O` [Example 22, pE-R-P-R-L-C-H-K-G-P-Nle-C-K(Palmitoyl)-OH] ([pGlu]RPRLCHKGP[Nle]CK(Palmitoyl)-OH; disulfide 6-12) gave a half-life of 13.3 h.
`CCCCCCCCCCCCCCCC(=O)NCCCC[C@@H]1NC(=O)[C@@H](NC(=O)[C@H](CC(C)C)NC(=O)[C@H](CCCNC(=N)N)NC(=O)[C@@H]2CCCN2C(=O)[C@H](CCCNC(=N)N)NC(=O)[C@@H]2CCC(=O)N2)CSSC[C@@H](C(=O)N[C@@H](Cc2ccccc2)C(=O)O)NC(=O)[C@H](CCCC)NC(=O)[C@@H]2CCCN2C(=O)CNC(=O)[C@H](CCCCN)NC1=O` [Example 23, pE-R-P-R-L-C-K(Palmitoyl)-K-G-P-Nle-C-F-OH] ([pGlu]RPRLCK(Palmitoyl)KGP[Nle]CF-OH; disulfide 6-12) gave a half-life of more than 16.7 h.
The figure for `CCCCCCCCCCCC(=O)NCCOCCOCC(=O)N[C@@H](CCC(N)=O)C(=O)N[C@@H](CCCNC(=N)N)C(=O)N1CCC[C@H]1C(=O)N[C@@H](CCCNC(=N)N)C(=O)N[C@@H](CC(C)C)C(=O)N[C@H]1CSSC[C@@H](C(=O)N[C@@H](Cc2ccccc2)C(=O)O)NC(=O)[C@H](CCCC)NC(=O)[C@@H]2CCCN2C(=O)CNC(=O)[C@H](CCCCN)NC(=O)[C@H](Cc2c[nH]cn2)NC1=O` [Example 25, Lauroyl-O2Oc-Q-R-P-R-L-C-H-K-G-P-Nle-C-F-OH] ({Lauroyl-AEEA}-QRPRLCHKGP[Nle]CF-OH; disulfide 6-12) is more than 16.7 h.

The record behind these values is US9982017B2, “Synthetic apelin mimetics for the treatment of heart failure” (priority 2012, dated 2018).
